# Data as given in BindingDB's records for doi:10.1007/s002130100844 (Case Western Reserve University, 2001).
# Values joined by “and” are separate entries in the source; they are usually repeats but may differ in a detail not shown here. Equal values may be shown once.
# Tests used:
# [1] = biological target: Gamma-aminobutyric acid type B receptor subunit 1 (UniProt Q9Z0U4)
# [2] = biological target: Delta-type opioid receptor (Homo sapiens, UniProt P41143)
# [3] = biological target: 5-hydroxytryptamine receptor 2A (Rattus norvegicus, UniProt P14842)
# [4] = biological target: Kappa-type opioid receptor (Homo sapiens, UniProt P41145)
# Mu-type opioid receptor = Mu-type opioid receptor (Homo sapiens, UniProt P35372)
# [5] = biological target: Sodium-dependent serotonin transporter (Homo sapiens, UniProt P31645)
# [6] = biological target: Sodium-dependent noradrenaline transporter (Homo sapiens, UniProt P23975)
# [7] = biological target: 5-hydroxytryptamine receptor 1D (Homo sapiens, UniProt P28221)
# 5-hydroxytryptamine receptor 1D, sequence (P28221 whole entry): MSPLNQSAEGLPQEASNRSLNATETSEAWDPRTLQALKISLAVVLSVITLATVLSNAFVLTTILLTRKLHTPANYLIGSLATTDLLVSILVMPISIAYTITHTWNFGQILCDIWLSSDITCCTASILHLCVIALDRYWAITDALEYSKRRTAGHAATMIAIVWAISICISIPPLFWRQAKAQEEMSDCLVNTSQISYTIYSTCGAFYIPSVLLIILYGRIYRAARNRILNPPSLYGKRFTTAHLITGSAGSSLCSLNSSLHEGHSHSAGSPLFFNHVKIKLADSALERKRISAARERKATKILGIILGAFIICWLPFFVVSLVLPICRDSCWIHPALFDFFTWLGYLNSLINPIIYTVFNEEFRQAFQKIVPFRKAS
# [8] = biological target: 5-hydroxytryptamine receptor 7 (Homo sapiens, UniProt P34969)
# D(2) dopamine receptor = D(2) dopamine receptor (Rattus norvegicus, UniProt P61169)
# [9] = biological target: 5-hydroxytryptamine receptor 1E (Homo sapiens, UniProt P28566)
# [10] = biological target: Beta-2 adrenergic receptor (Homo sapiens, UniProt P07550)
# [11] = biological target: Muscarinic acetylcholine receptor M3 (Homo sapiens, UniProt P20309)
# Muscarinic acetylcholine receptor M3, sequence (P20309 whole entry): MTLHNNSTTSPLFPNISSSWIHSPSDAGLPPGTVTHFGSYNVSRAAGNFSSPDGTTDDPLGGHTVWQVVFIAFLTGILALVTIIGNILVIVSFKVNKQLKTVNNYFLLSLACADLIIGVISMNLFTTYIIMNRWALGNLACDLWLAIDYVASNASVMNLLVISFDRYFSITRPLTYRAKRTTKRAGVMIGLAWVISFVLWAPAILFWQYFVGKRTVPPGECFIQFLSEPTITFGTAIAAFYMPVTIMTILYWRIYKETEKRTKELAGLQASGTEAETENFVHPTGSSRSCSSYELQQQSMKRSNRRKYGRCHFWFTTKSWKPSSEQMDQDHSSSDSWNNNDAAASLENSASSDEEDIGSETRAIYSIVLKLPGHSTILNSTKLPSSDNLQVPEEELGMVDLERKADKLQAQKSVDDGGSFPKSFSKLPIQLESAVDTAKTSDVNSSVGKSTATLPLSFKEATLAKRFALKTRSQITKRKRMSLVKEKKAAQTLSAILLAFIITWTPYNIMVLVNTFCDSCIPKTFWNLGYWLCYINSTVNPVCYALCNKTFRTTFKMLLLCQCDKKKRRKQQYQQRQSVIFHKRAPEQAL
# [12] = biological target: Alpha-1A adrenergic receptor (Homo sapiens, UniProt P35348)
# Alpha-1A adrenergic receptor, sequence (P35348 whole entry): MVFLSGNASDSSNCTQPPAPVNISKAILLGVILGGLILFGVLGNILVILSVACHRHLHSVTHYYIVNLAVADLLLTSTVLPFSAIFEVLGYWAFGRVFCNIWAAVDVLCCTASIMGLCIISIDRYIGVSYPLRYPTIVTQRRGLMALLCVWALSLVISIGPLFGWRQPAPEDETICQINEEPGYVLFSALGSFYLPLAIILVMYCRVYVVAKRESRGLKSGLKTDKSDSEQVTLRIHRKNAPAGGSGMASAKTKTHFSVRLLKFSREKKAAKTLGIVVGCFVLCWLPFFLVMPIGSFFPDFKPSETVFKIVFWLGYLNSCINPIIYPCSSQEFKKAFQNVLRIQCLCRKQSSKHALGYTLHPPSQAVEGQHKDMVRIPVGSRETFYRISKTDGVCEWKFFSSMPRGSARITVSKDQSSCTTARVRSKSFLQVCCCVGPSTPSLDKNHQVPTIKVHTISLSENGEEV
# D(1A) dopamine receptor = D(1A) dopamine receptor (Homo sapiens, UniProt P21728)
# [13] = biological target: 5-hydroxytryptamine receptor 5A (Homo sapiens, UniProt P47898)
# [14] = biological target: 5-hydroxytryptamine receptor 2C (Rattus norvegicus, UniProt P08909)
# D(1B) dopamine receptor = D(1B) dopamine receptor (Homo sapiens, UniProt P21918)
# [15] = biological target: Alpha-2B adrenergic receptor (Homo sapiens, UniProt P18089)
# Alpha-2B adrenergic receptor, sequence (P18089 whole entry): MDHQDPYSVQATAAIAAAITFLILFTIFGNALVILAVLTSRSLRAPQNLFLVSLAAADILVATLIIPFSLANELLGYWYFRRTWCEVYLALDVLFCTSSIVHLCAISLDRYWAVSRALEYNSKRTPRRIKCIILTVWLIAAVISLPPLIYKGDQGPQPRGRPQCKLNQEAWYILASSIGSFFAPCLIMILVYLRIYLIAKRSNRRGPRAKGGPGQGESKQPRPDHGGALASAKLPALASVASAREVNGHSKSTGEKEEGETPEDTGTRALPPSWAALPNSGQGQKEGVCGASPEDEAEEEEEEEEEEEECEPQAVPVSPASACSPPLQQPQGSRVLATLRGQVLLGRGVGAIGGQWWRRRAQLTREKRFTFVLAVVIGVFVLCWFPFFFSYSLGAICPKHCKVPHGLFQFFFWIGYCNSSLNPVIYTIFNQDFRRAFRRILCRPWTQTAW
# [16] = biological target: Alpha-2C adrenergic receptor (Homo sapiens, UniProt P18825)
# Alpha-2C adrenergic receptor, sequence (P18825 whole entry): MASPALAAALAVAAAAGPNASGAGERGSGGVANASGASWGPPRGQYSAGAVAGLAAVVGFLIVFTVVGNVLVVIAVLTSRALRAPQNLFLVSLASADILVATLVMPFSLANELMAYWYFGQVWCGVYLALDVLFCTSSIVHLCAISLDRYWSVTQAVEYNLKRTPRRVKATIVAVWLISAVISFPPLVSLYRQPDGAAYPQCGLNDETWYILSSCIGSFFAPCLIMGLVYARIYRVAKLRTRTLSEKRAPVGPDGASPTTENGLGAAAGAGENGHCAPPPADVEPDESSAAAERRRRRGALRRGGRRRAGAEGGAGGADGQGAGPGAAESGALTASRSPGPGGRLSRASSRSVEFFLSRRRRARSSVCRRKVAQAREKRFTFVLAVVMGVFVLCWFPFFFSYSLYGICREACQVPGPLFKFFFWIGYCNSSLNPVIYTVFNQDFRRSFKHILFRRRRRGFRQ
# [17] = biological target: Muscarinic acetylcholine receptor M1 (Homo sapiens, UniProt P11229)
# [18] = biological target: Alpha-1B adrenergic receptor (Homo sapiens, UniProt P35368)
# Alpha-1B adrenergic receptor, sequence (P35368 whole entry): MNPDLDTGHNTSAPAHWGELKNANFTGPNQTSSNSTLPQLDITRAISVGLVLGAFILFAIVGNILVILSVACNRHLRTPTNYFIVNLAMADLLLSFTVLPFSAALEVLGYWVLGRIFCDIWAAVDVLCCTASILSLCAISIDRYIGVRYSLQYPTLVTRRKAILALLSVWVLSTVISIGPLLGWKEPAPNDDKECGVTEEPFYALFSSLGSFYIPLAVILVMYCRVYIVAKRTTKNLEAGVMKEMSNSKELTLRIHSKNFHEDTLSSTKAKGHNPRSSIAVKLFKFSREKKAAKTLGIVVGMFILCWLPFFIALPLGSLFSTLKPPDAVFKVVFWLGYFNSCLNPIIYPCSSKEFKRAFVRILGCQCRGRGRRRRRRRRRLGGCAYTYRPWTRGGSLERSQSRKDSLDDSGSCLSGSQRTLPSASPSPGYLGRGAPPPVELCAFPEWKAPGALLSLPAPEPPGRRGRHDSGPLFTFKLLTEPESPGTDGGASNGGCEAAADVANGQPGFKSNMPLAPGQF
# Vasopressin V1b receptor = Vasopressin V1b receptor (Homo sapiens, UniProt P47901)
# [19] = biological target: Muscarinic acetylcholine receptor M4 (Homo sapiens, UniProt P08173)
# Muscarinic acetylcholine receptor M4, sequence (P08173 whole entry): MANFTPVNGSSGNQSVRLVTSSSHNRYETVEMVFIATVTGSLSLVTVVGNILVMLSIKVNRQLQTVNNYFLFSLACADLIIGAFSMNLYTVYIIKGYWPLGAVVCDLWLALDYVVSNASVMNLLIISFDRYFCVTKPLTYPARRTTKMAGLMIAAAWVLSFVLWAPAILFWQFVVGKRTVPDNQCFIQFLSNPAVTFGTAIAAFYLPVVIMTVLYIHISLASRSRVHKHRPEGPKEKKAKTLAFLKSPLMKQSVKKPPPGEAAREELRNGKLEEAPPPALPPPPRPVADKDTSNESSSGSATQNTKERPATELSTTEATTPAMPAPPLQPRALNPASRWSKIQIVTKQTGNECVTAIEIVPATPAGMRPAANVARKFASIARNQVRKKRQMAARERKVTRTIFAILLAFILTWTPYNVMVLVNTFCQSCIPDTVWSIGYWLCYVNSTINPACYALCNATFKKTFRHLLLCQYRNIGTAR
# D(4) dopamine receptor = D(4) dopamine receptor (Rattus norvegicus, UniProt P30729)
# [20] = biological target: Sodium-dependent dopamine transporter (Bos taurus, UniProt P27922)
# [21] = biological target: Glutamate receptor ionotropic, NMDA 1 (Rattus norvegicus, UniProt P35439)
# [22] = biological target: Muscarinic acetylcholine receptor M5 (Homo sapiens, UniProt P08912)
# Muscarinic acetylcholine receptor M5, sequence (P08912 whole entry): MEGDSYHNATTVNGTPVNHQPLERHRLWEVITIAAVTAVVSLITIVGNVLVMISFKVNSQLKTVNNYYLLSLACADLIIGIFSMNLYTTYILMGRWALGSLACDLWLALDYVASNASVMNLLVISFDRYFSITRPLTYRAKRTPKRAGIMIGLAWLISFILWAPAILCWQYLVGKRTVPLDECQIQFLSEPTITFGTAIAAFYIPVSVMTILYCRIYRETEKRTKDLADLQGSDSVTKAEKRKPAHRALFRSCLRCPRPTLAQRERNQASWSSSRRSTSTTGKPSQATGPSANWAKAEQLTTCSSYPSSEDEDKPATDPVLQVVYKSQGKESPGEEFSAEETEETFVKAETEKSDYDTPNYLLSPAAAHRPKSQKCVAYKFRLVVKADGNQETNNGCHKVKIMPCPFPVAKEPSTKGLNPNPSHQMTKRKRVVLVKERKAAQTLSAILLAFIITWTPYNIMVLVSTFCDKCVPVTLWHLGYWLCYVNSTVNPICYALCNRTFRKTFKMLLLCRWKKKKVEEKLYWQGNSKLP
# [23] = biological target: Beta-1 adrenergic receptor (Homo sapiens, UniProt P08588)
# Beta-1 adrenergic receptor, sequence (P08588 whole entry): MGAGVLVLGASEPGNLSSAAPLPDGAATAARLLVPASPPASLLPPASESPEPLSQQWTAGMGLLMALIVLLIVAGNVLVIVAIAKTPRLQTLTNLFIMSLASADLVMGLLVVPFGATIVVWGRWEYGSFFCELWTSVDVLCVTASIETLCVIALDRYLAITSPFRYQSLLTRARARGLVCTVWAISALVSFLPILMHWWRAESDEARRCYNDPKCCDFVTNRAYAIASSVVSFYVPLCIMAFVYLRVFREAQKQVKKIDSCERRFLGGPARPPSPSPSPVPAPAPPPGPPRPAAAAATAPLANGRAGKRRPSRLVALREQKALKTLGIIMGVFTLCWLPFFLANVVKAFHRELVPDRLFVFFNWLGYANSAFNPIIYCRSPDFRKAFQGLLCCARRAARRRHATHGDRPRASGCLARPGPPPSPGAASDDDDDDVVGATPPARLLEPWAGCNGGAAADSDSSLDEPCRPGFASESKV
# [24] = biological target: Alpha-2A adrenergic receptor (Homo sapiens, UniProt P08913)
# Alpha-2A adrenergic receptor, sequence (P08913 whole entry): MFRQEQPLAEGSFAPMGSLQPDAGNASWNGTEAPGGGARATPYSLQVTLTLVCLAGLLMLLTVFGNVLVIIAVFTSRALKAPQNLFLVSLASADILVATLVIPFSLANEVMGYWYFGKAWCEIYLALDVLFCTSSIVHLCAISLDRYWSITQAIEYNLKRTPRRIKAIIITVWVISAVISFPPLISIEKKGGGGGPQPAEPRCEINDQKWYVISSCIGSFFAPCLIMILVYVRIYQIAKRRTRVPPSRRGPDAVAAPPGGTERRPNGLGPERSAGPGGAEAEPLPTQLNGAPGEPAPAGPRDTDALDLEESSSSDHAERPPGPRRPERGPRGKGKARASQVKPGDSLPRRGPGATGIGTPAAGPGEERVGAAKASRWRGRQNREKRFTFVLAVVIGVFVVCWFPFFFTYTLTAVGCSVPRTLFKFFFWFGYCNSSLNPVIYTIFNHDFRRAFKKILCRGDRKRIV
smiles,measurement,setting,value
"CC(CF)NCC(O)COc1cccc2[nH]c3ccccc3c12 [Fluorocarazolol,(S)]",Ki,[1],> 10 µM
same,Ki,[2],> 10 µM
same,Ki,[3],> 10 µM
same,Ki,[4],> 10 µM
same,Ki,Mu-type opioid receptor,> 10 µM
same,Ki,[5],> 10 µM
same,Ki,[6],> 10 µM
same,Ki,[7],3.28 µM and 3.09 µM
same,Ki,[8],7.07 µM and 6.4 µM
same,Ki,D(2) dopamine receptor,> 10 µM
same,Ki,[9],> 10 µM
same,Ki,[10],0.138 nM and 0.079 nM
same,Ki,[11],> 10000 nM and 1590 nM
same,Ki,[12],3200 nM and 611 nM
same,Ki,D(1A) dopamine receptor,> 10 µM
same,Ki,[13],> 10 µM
same,Ki,[14],> 10 µM
same,Ki,D(1B) dopamine receptor,> 10 µM
same,Ki,[15],> 10 µM and 8.85 µM
same,Ki,[16],1.89 µM and 4.4 µM
same,Ki,[17],2730 nM and 1750 nM
same,Ki,[18],4600 nM and 677 nM
same,Ki,Vasopressin V1b receptor,> 10 µM
same,Ki,[19],5.41 µM and > 10 µM
same,Ki,D(4) dopamine receptor,> 10 µM
same,Ki,[20],> 10 µM
same,Ki,[21],> 10 µM
same,Ki,[22],4.88 µM and 5.89 µM
same,Ki,[23],0.45 nM and 0.114 nM
same,Ki,[24],3.36 µM and 2.87 µM
